Reference: US12383653B2, “Neutral multidomain peptide hydrogels and uses thereof” (William Marsh Rice University, priority 2018, dated 2025)
Entries after “also recorded” stand apart in the source; their conditions may differ. Where a SMILES comes first, the peptide text is derived from it. [ ]: non-standard residue; d: D form. Hyp = O=C(O)[C@@H]1C[C@@H](O)CN1

Assays:
[1] = Hydrogel formation (inverted-vial test, pH, ionic strength, buffers); format: physicochemical
Method: Hydrogel Formation. Peptide solutions of O5 were prepared at 1% by weight (4.2 mM) in 149 mM sucrose and 0.5×HBSS. This buffer system was chosen to be consistent with prior MDP experiments and find optimum gelling conditions for future in vivo and in vitro work. Peptide solutions were sonicated using a Microson Ultrasonic Cell Disruptor with a 2 mm microprobe. The instrument frequency was 22.5 kHz and a power output up to 10 watts (RMS) was used. Solutions were sonicated at room temperature for 1 or 10 cycles, where each cycle consisted of 10 pulses and 1 min relaxation time between cycles. For the study of hydrogelation of O5, K2 and E2 at different pH values and ionic strength, 1% by weight peptide solutions were prepared in deionized water, PBS, or HBSS. pH was adjusted using HCl or NaOH 0.1 M solutions.

[2] = Oscillatory rheology of 1 wt.% hydrogel; format: physicochemical
Method: Oscillatory Rheology. Rheological properties of O5 hydrogel were analyzed by oscillatory rheology using a TA Instruments AR-G2 rheometer (TA Instruments, New Castle, DE). Hydrogels were prepared 24 h before the analysis as described above. 150 μL of 1% by weight peptide hydrogels were transferred from a cut syringe onto the rheometer stage equipped with a 12 mm stainless-steel parallel plate set to a 1000 μm gap height. The following program was used to monitor the storage modulus (G′) and loss modulus (G″) under various conditions as has been previously published (Li et al., 2017). Strain sweep analysis was performed using an applied strain of 0.01%-200% at a frequency of 1 rad/s. Frequency sweep analysis was performed under 1% strain at 0.1-100 rad/s. Shear recovery analysis was performed by subjecting the peptide sample to 1% strain for 20 min, then 200% for 1 min, and finally 1% for 20 min, allowing for disruption of the hydrogel and monitoring of G′ and G″ recovery.

[3] = Secondary structure estimation from circular dichroism in TFE, least square linear method; format: physicochemical; settings: TFE at 25° C., 1 wt.%
Method: Circular Dichroism (CD) spectroscopy. For secondary structure characterization, peptide solutions of 1% by weight (molar concentration is included in Table 2) were prepared in 2,2,2-trifluoroethanol (TFE, Sigma Aldrich, St. Louis, MO). CD spectra acquisition was performed in a CD Jasco J-810 spectropolarimeter (Jasco Inc., Easton, MD) using a 0.01 mm cuvette. Data were collected at room temperature from 180 to 250 nm at a speed of 50 nm/min, with a 0.1 nm data pitch and the spectra were averaged over 5 scans. To study the hydrogelation of O5, 1% by weight peptide solutions were made in 149 mM sucrose solution in 0.5× Hank's Balanced Salt Solution (HBSS, Life Technologies) and analyzed as previously described.
To estimate the secondary structure of O peptide series, data fitting using the least square linear method was performed in MATLAB (Mathworks, Natick, MA). (Hyp)6, O1(SL)6O1 and K2(SL)6K2 were used as basis spectra for polyproline type II, β-sheet and α-helix, respectively (FIG. 7).

[4] = 3D culture cytocompatibility, Calcein AM / Ethidium homodimer-1 viability and cell morphology; format: cell-based; settings: mouse; day 1 after encapsulation, 1 wt.% hydrogel; read-out: percentage of viable cells
Method: (§1) Cytocompatibility and cell viability studies. All cell culture materials, not otherwise specified, were purchased from Gibco, Life Technologies. NIH-3T3 fibroblast cells were cultured in Dulbecco's Modified Eagle Medium (DMEM) supplemented with 10% Fetal Bovine Serum (FBS), 2% L-glutamine (200 mM), 1% sodium pyruvate (100 mM), and 1% pen-strep solution (5000 units/mL of penicillin and 5 mg/mL of streptomycin, Sigma-Aldrich, St. Louis, MO). Cells were maintained at 37° C. and 5% CO2 with humidity and split when reaching 80%-90% confluency by treatment with 0.25% trypsin-EDTA and neutralization with complete media. Cells were centrifuged for 6 min at 1600 rpm, then the cell pellet was dispersed in HBSS, counted and adjusted to the required concentration. 3D cell culture in K2 hydrogel was achieved by mixing a 2% by weight peptide stock solution in 298 mM sucrose with a cell suspension of 2×10^6 cells/mL in HBSS. The final concentration was 1% by weight K2 hydrogel in 149 mM sucrose and 0.5×HBSS with 1×10^6 cells/mL. For O5 peptide, hydrogel was prepared by sonication using only 90% of the required 149 mM sucrose-0.5×HBSS to obtain a 1% by weight concentration, the remaining 10% was added as a cell suspension, and mixed by pipetting into the gel to obtain a final concentration of 1×10^6 cells/mL evenly distributed though the volume of the hydrogel. 70 μL of seeded hydrogels were cultured in a Lab-Tek 16-well glass chamber ([…], Thermo Fisher, Rochester, NY) with 200 μL of medium and fed every 2 days by replacing 100 μL with fresh media. Cell viability was analyzed using a live/dead viability kit (Invitrogen, Thermo Fisher, Carlsbad, CA). At specific time points, the medium was removed, and gels were rinsed with 1×PBS, then 100 μL of staining solution containing 2 μM Calcein AM and 4 μM Ethidium homodimer-1 in DPBS were added. Cells were incubated from 15 to 30 min and imaged using a Nikon A1 Rsi fluorescent confocal microscope (Nikon Instruments, Tokyo, Japan). Three z-stack images of 100 μm deep per sample were taken at 20× using a 488 nm green channel and 561 nm red channel lasers. Images were processed with NIS Element and live/dead cell counting was performed on Imaris 3D/4D Image Processing software (Bitplane, Concord, MA).
(§2) To evaluate the cell morphology, hydrogels were rinsed with PBS and fixed with 10% buffered formalin for 30 min Cells were treated with 0.5% Triton X for 10 min and 100 mM glycine for 10 min, followed by 10% Bovine Serum Albumin (BSA) in HBSS block solution. Then cells were stained for filamentous actin with Alexa Fluor® 488-Phalloidin and for the nuclei with ProLong® Gold Antifade DAPI mounting media. Cell in the hydrogels were analyzed by confocal microscopy using a 40× water objective and processed as described.

[5] = tested on: NIH-3T3 fibroblasts; assay: as above; format: cell-based
Method: as §1, §2

[6] = In vivo host response, subcutaneous injection model; design: species or system mice
Method: In vivo compatibility studies. All experimental procedures were approved by the Rice University Institutional Animal Care and Use Committee (IACUC) and performed according to the Animal Welfare Act and NIH guidelines. Female C57BL/6 mice from 8 to 12 weeks were purchased from Charles River (Wilmington, MA). Mice were injected with 4 implants of 100 μL 1% by weight O5 hydrogel in the dorsal subcutaneous space using a 26-gauge needle. At days 3, 7, and 14 mice were euthanized, and implants were extracted, fixed with 10% neutral buffered formalin and processed into paraffin blocks. Tissue was sectioned at 5 μm thickness and stained with hematoxylin and eosin, and Masson's trichome under standard procedures. For fluorescent immunostaining, tissue sections were deparaffinized, hydrated and antigens were retrieved by boiling in sodium citrate buffer (10 mM sodium citrate, 0.05% Tween 20 at pH 6.0). Tissues were permeabilized with 0.5% Triton X and blocked with 1% BSA in PBS for 30 min. Tissues were incubated overnight at 4° C. with rat anti-Mouse F4/80 monoclonal antibody (1:50, clone BM8, eBioscience™, Cat #14-4801-82). Then, samples were incubated for 1 hour with goat anti-rat AlexaFluor® 568 (1:500, Invitrogen), followed by mounting with ProLong® Gold Antifade reagent with DAPI. Tissue slides were analyzed by confocal fluorescent microscopy.

## CC(=O)N1C[C@H](O)C[C@H]1C(=O)N1C[C@H](O)C[C@H]1C(=O)N1C[C@H](O)C[C@H]1C(=O)N1C[C@H](O)C[C@H]1C(=O)N1C[C@H](O)C[C@H]1C(=O)N[C@@H](CO)C(=O)N[C@@H](CC(C)C)C(=O)N[C@@H](CO)C(=O)N[C@@H](CC(C)C)C(=O)N[C@@H](CO)C(=O)N[C@@H](CC(C)C)C(=O)N[C@@H](CO)C(=O)N[C@@H](CC(C)C)C(=O)N[C@@H](CO)C(=O)N[C@@H](CC(C)C)C(=O)N[C@@H](CO)C(=O)N[C@@H](CC(C)C)C(=O)N1C[C@H](O)C[C@H]1C(=O)N1C[C@H](O)C[C@H]1C(=O)N1C[C@H](O)C[C@H]1C(=O)N1C[C@H](O)C[C@H]1C(=O)N1C[C@H](O)C[C@H]1C(N)=O [Peptide O5, Ac-OOOOOSLSLSLSLSLSLOOOOO-CONH2] (Ac-[Hyp][Hyp][Hyp][Hyp][Hyp]SLSLSLSLSLSL[Hyp][Hyp][Hyp][Hyp][Hyp]-NH2)
[1]; 10 mg/mL
  state of the peptide at 10 mg/mL: forms a hydrogel
[1]; 1% by weight in 149 mM sucrose and 0.5×HBSS, ultrasonication
  hydrogelation in cell culture media: forms a self-supportive hydrogel
[1]; 1% by weight, pH adjusted with HCl or NaOH, inverted-vial test / CD
  hydrogel formation at acidic, neutral and basic pH: remains a hydrogel at acidic, neutral and basic pH; also recorded: remains a hydrogel at all pH
[1]; also in deionized water, PBS and HBSS
  pH range over which peptide remains a hydrogel: 3-11
[2]
  loss modulus (G″): 1.7±0.5 Pa
  storage modulus (G′): 23.3±8.7 Pa
[3]
  % PPII: 50%
  % α-helix: 40.5%
  % β-sheet: 9.5%
  Predominant Structure: PPII
[4]
  viability at 24 h, 1 % by weight: ~70%
[5]; 5 days encapsulated, actin staining
  cell spreading and adhesion to the material: do not spread and adhere to the material
[5]; after 5 days of culture
  cell recovery after extraction from the hydrogel: recover, grow, and proliferate
[5]; day 3 compared with day 1
  percentage of viable cells: relatively unchanged
[5]; days 1 to 5, 1 wt.% hydrogel
  cytotoxicity / viability over the culture: good initial viability, which remains constant throughout the experiment
[5]; up to day 5
  cell proliferation / viable cell density in the gel: not observed to proliferate
[6]; compared to K2 hydrogel
  inflammatory response: weaker inflammatory response
[6]; day 14
  implant degradation: almost completely degraded
[6]; day 14, Masson's trichrome
  collagen deposition / remodeling: natural collagen is observed
[6]; subcutaneous implant, in contrast with PEG
  fibrous encapsulation: not fibrously encapsulated
